# What was measured:
# [1] = test system: Human STING (hSTING, residues 155-341); assay: Interaction with hSTING as determined by Differential Scanning Fluorimetry (DSF); assay type: binding; conditions: 100 μM test compounds, 5 μM target protein
# Method: Interaction with hSTING as Determined by Differential Scanning Fluorimetry (DSF)
# In DSF, the temperature at which a protein unfolds, also called the melting temperature Tm, is measured by changes in fluorescence of a dye that binds to the hydrophobic parts of the protein. Tm shifts upon binding of a small molecule are correlated with the binding affinity of this small molecule. As target protein, Human STING (hSTING, residues 155-341, MW: 21578.4 Da; protein stock solution: c=1302 μM stock solution in 20 mM Tris, 100 mM NaCl, 2 mM TCEP pH 8.8) was used, as assay buffer 20 mM Tris, 150 mM NaCI pH7.5 was added where and as necessary.
# Final concentrations of components in assay: 100 μM test compounds, 5 μM target protein, “5×” SYPR Orange (from stock solution SYPRO orange solution in DMSO (invitrogen cat.-no. S6650-500 ul), concentration “5000×”)
# 1) Dilutions of compound stock solutions (10 mM in DMSO) were prepared in assay buffer (20 mM Tris, 150 mM NaCl; pH7.5)
# 2) 5 μl fluorescent dye stock solution (5000×SYPRO Orange in DMSO) was mixed with 19 μl target protein (1302 μM) and 976 μl assay buffer.
# 3) 2 μl of this protein-dye-mixture (25×SYPRO Orange and 25 μM Protein) was added to 8 μl diluted compound solution as prepared in step 1. Final volume was 10 μl.
# 4) With every 20 compounds, two negative controls were measured.
# 5) The plates were prepared for duplicate measurement and centrifuged for 2 min at 1000 g.
# 6) For the measurement, a CFX384 Real-Time System (Bio-Rad) was used. The run consisted of 140 cycles with 0.5° C./cycle (temperature ramp 15 s/cycle, 25° C. to 95° C.).
# Data analysis: The melting curves were processed in Bio-Rad CFX Manager. Peak type was set to “negative”. Two replicates of TM (melting temperature) measurements were averaged and the standard deviation was calculated.
# [2] = molecular target: T1, STING HAQ-variant (Homo sapiens, UniProt Q86WV6, G230A/H232R/R293Q/R71H); assay: IRF-inducible SEAP reporter assay in THP1-Blue ISG cells, STING HAQ-variant; assay type: cell-based; conditions: STING HAQ-variant (parental or re-introduced), 24 hours incubation
# T1 construct: parental THP1-Blue™ ISG cell lines (which express endogenously HAQ); host or cells: THP1-Blue ISG (parental, endogenous HAQ) or STING-KO clone re-transduced with HAQ (MSCV-ires-GFP-Blasti)
# T1 sequence (Q86WV6 whole entry R71H/G230A/H232R/R293Q): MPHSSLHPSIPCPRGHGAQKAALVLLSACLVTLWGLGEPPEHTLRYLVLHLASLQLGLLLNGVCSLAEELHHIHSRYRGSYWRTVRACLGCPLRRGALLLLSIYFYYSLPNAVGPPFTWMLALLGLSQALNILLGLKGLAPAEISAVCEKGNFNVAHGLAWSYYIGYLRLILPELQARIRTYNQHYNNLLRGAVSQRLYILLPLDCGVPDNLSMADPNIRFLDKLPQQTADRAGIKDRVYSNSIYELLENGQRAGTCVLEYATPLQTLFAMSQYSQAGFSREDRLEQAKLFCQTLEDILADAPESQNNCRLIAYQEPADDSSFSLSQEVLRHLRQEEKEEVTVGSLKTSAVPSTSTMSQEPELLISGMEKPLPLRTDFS
# Source text: (§1) In Vitro Cytokine Induction Measured Via Activation of an Interferon Regulatory Factor Inducible Reporter Gene
# (§2) Activation of the STING protein expressed in cell lines results in an increase of interferon production. By the stable integration of an interferon regulatory factor (IRF)-inducible SEAP gene (secreted embryonic alkaline phosphatase) reporter construct the functional interferon signaling pathway can be monitored. Using Invivogen's THP1-Blue™ ISG colorimetric enzyme assay and a suitable optical density (OD) reader the activity of SEAP can be detected and quantified. This technique could be used to characterize pharmacological modification of the STING pathway.
# (§3) Several single nucleotide polymorphisms have been identified in the human STING gene. To determine the activity of the above described compounds, THP1-Blue™ ISG reporter cell lines expressing the different human STING variants have been generated. To do so, the endogenous human STING was first deleted using the CRISPR/CAS9 system: THP1-Blue ISG cells were electroporated with ALL-IN-ONE CRISPR plasmids targeting the STING gene (purchased from Sigma encoding the gRNA and GFP as a reporter gene for successful transduction). GFP positive cells then were sorted 24 h post transfection and expanded. Cells were then dispersed in semisolid methocel medium to allow single cell clone isolations. Clones were then screened for cGAMP responsiveness using the Quanti-Blue™ reporter assay. Non-responsive clones were subsequently analysed for STING loss by western blotting and sequencing of the STING locus.
# (§4) For the overexpression of the human STING variants, a confirmed THP1-Blue™ ISG hSTING KO clone was transduced with individual retroviral plasmids (MSCV-ires-GFP-Blasti) encoding the allelic variants of hSTING (WT (H232R), HAQ, R232H, AQ and R293Q). Transduced cells were sorted for different levels of GFP fluorescence and STING allele expression was analysed by western blot.
# (§5) Measurements of SEAP activity were performed in THP1-Blue™ ISG cells stably expressing the different human STING isoforms and the IRF-inducible SEAP reporter construct. Cells were cultivated in RPMI1640 medium with 10% fetal calf serum, 50 μg/ml Penicillin-Streptomycin, 100 μg/ml Zeocin, and 100 μg/ml Normocin in a 37°, 95% humidity and 5% CO2 incubator.
# (§6) In preparation for the assay, the cells were distributed into the assay plates with a density of 10000 cells/15 μL per well. Compounds were prepared by an 8 point serial dilution in 50% aqueous DMSO and a final dilution step into medium to ensure a final DMSO concentration of 0.5% in the assay. 5 μL of diluted compounds were added to the plates, followed by a 24 hours incubation at 37° C.
# (§7) At the day of the assay, 75 μl per well of Quanti-Blue™ reagent was added to all wells of the plate and the plate was incubated another 30 minutes at 37° C. The OD at 620 nm was measured on the EnVision reader (PerkinElmer).
# (§8) EC50 values and Hill slopes were derived from 8-point four parametric non-linear curve fittings with the Megalab software (Boehringer Ingelheim) using the OD at 620 nm.
# (§9) Data of EC50 values can be found in tables 2a-2e.
# Data of EC50 values on STING HAQ-variant can be found in table 2a. Shown data below were either derived from the parental THP1-Blue™ ISG cell lines (which express endogenously HAQ) or from genetically engineered THP1-Blue™ ISG cell lines in which first STING has been knocked-out and the HAQ specific STING isoform has been re-introduced as described above.
# [3] = molecular target: T2, STING H232R-variant (Homo sapiens, UniProt Q86WV6, H232R); assay: IRF-inducible SEAP reporter assay in THP1-Blue ISG cells, STING H232R-variant; assay type: cell-based; conditions: STING H232R-variant (WT), 24 hours incubation
# T2 construct: expressed in transfected cells; host or cells: THP1-Blue ISG hSTING KO clone, retroviral MSCV-ires-GFP-Blasti
# T2 sequence (Q86WV6 whole entry H232R): as the sequence (Q86WV6 whole entry R71H/G230A/H232R/R293Q) above, with H71R, A230G, Q293R counted along it
# Source text: as §1, §2, §3, §4, §5, §6, §7, §8, §9
# Data of EC50 values on STING H232R-variant can be found in table 2b: […]
# [4] = molecular target: T3, STING R232H-variant (Homo sapiens, UniProt Q86WV6); assay: IRF-inducible SEAP reporter assay in THP1-Blue ISG cells, STING R232H-variant; assay type: cell-based; conditions: 24 hours incubation
# T3 construct: expressed in transfected cells; host or cells: THP1-Blue ISG hSTING KO clone, retroviral MSCV-ires-GFP-Blasti
# T3 sequence (Q86WV6 whole entry, stated change not applied): as the sequence (Q86WV6 whole entry R71H/G230A/H232R/R293Q) above, with H71R, A230G, R232H, Q293R counted along it
# Source text: as §1, §2, §3, §4, §5, §6, §7, §8, §9
# Data of EC50 values on STING R232H-variant can be found in table 2c: […]
# [5] = molecular target: T4, STING R293Q-variant (Homo sapiens, UniProt Q86WV6, H232R/R293Q); assay: IRF-inducible SEAP reporter assay in THP1-Blue ISG cells, STING R293Q-variant; assay type: cell-based; conditions: 24 hours incubation
# T4 construct: expressed in transfected cells; host or cells: THP1-Blue ISG hSTING KO clone, retroviral MSCV-ires-GFP-Blasti
# T4 sequence (Q86WV6 whole entry H232R/R293Q): as the sequence (Q86WV6 whole entry R71H/G230A/H232R/R293Q) above, with H71R, A230G counted along it
# Source text: as §1, §2, §3, §4, §5, §6, §7, §8, §9
# Data of EC50 values on STING R293Q-variant can be found in table 2d: […]
# [6] = molecular target: T5, STING AQ-variant (Homo sapiens, UniProt Q86WV6, G230A/H232R/R293Q); assay: IRF-inducible SEAP reporter assay in THP1-Blue ISG cells, STING AQ-variant; assay type: cell-based; conditions: 24 hours incubation
# T5 construct: expressed in transfected cells; host or cells: THP1-Blue ISG hSTING KO clone, retroviral MSCV-ires-GFP-Blasti
# T5 sequence (Q86WV6 whole entry G230A/H232R/R293Q): as the sequence (Q86WV6 whole entry R71H/G230A/H232R/R293Q) above, with H71R counted along it
# Source text: as §1, §2, §3, §4, §5, §6, §7, §8, §9
# Data of EC50 values on STING AQ-variant can be found in table 2e: […]
# [7] = in vitro; conditions: human, Caco-2, pH 7.4
# Method: Cellular Permeability Measurements
# Caco-2 cells were obtained from Leibniz Institute DSMZ-German Collection of Microorganisms and Cell Cultures (Braunschweig, Germany) and cultured in DMEM (Dulbecco's modified Eagle medium) containing (in final concentrations) 10% FCS (fetal calf serum), 1% NEAA (non-essential amino acids), 2 mM Glutamin, 100 U/mL Penicillin and 100 μg/mL Streptomycin. Caco-2 cells were seeded either onto 24-well Transwell inserts (Corning, #3379) for bidirectional permeability assays at a density of 160,000 cells/cm^2 and cultured for 3 weeks, with media change on every second day.
# For bidirectional permeability assays 10 mM DMSO stock solutions were diluted in transport buffer (final concentrations: 128.13 mM NaCl, 5.36 mM KCl, 1 mM MgSO4, 1.8 mM CaCl2, 4.17 mM NaHCO3, 1.19 mM Na2HPO4, 0.41 mM NaH2PO4, 15 mM 2-[4-(2-hydroxyethyl)piperazin-1-yl]ethanesulfonic acid (HEPES), 20 mM glucose, pH 7.4) containing 0.25% bovine serum albumin to a final concentration of 10 μM of the test compounds and added to the apical or basal compartment. Cells were incubated with the compounds for up to 2 h. Samples from the opposite compartment were taken at different timepoints.
# Compound concentrations in the compartments were quantified using a RapidFire-based high-throughput HPLC/MS/MS system (high performance liquid chromatography/mass spectrometry; Bio-Cius) that was customized to a fully automated and flexible platform, termed RIAS. In this modified setup, the sample was aspirated by a vacuum pump into a 10 μL sample loop for 250 ms and flushed onto a C4 cartridge (3.8 μL bed volume; Bio-Cius) with the aqueous mobile phase (99.9% water, 0.09% formic acid, and 0.01% TFA; flow rate 1.5 mL/min). Prior to bioanalysis samples were spiked with internal standard solution and diluted with acetonitrile (ACN) for protein precipitation. Measurement was operated in multiplereaction monitoring (MRM) mode. Quantification was performed using external calibration. A solid-phase extraction step retained the analyte for 3000 ms while interfering matrix (e.g., buffer components) was removed. With a simple step gradient, the analyte was back-eluted from the cartridge for 3,000 ms with the organic mobile phase (99.9% acetonitrile/methanol [1:1, v:v], 0.09% formic acid, and 0.01% TFA) and flushed into the mass spectrometer at a flow rate of 1.25 mL/min. Afterwards, the cartridge was re-equilibrated with the aqueous mobile phase for 500 ms (flow rate 1.5 mL/min).
# Apparent permeability coefficients in the apical to basal direction (Papp,AB) and in the basal to apical direction (Papp,BA) and efflux ratios were calculated as follows: Papp,AB=QAB/(C0·s·t) Papp,BA=QBA/(C0·s·t) Efflux ratio=Papp,BA/Papp,AB
# where Q is the amount of compound recovered in the receiver compartment after the incubation time t, C0 the initial compound concentration given to the donor compartment, and s the surface area of the Transwell inserts. […] In addition, transepithelial electrical resistance (TEER) values are measured for each plate before the permeability assay, and total recovery in donor and receiver compartments was determined for each compound.
SMILES,EC50 [2] [nM],EC50 [3] [nM],EC50 [4] [nM],EC50 [5] [nM],EC50 [6] [nM],efflux ratio at 10 μM [7],Papp A→B at 10 μM [7] [×10⁻⁶ cm/s],thermal shift (ΔTm) [1] [K]
"COC(=O)C1C2CN(c3ccc(-n4nc(-c5cccc6nn(C)cc56)c5cccc(C)c54)cn3)CC21 (stereo not shown) [Example #1, Methyl 3-(5-(2′,7-dimethyl-1H,2′H-[3,4′-biindazol]-1-yl)pyridin-2-yl)-3-azabicyclo[3.1.0]hexane-6-carboxylate]",700,200,200,400,200,0.4,–,21
"CCc1cccc2c(-c3cccc4nn(C)cc34)nn(-c3ccc(N4CCC(C(=O)O)CC4)nc3)c12 [Example #66, 1-(5-{7-ethyl-2′-methyl-1H,2′H-[3,4′-biindazol]-1-yl}pyridin-2-yl)piperidine-4-carboxylic acid]",1600,300,200,700,800,–,–,16
"Cc1cccc2c(-c3cccc4nn(C)cc34)nn(-c3ccc(N4CCn5cncc5C4)nc3)c12 [compound 12, 1-(6-{5H,6H,7H,8H-imidazo[1,5-a]pyrazin-7-yl}pyridin-3-yl)-2′,7-dimethyl-1H,2'H-3,4′-biindazole]",1900,400,600,2100,–,0.4,11,21
"Cc1cccc2c(-c3cccc4nn(C)cc34)nn(-c3ccc(NCc4cncnc4)nc3)c12 [compound 24, 5-{2′,7-dimethyl-1H,2′H-[3,4′-biindazol]-1-yl}-N-[(pyrimidin-5-yl)methyl]pyridin-2-amine]",2700,2000,2300,2200,–,–,–,–
"Cc1cccc2c(-c3cccc4nn(C)cc34)nn(-c3ccc(N4CCN(C=O)CC4)nc3)c12 [compound 51, 4-(5-(2′,7-dimethyl-1H,2′H-[3,4′-biindazol]-1-yl)pyridin-2-yl)piperazine-1-carbaldehyde]",300,50,50,300,200,–,–,15

# Continued, in another order:
EC50 [2] [nM],EC50 [3] [nM],EC50 [4] [nM],EC50 [5] [nM],EC50 [6] [nM],efflux ratio at 10 μM [7],Papp A→B at 10 μM [7] [×10⁻⁶ cm/s],SMILES,thermal shift (ΔTm) [1] [K]
2100,300,–,–,5300,0.8,38,"Cc1cccc2c(-c3cccc4nn(C)cc34)nn(-c3ccc(N4CC5(CN(C=O)C5)C4)nc3)c12 [compound 54, 6-(5-{2′,7-dimethyl-1H,2′H-[3,4′-biinda-zol]-1-yl}pyridin-2-yl)-2,6-diaza-spiro[3.3]heptane-2-carbaldehyde]",21
700,200,600,500,–,–,–,"Cn1cc2c(-c3nn(-c4ccc(N5CC6C(C5)C6C(=O)O)nc4)c4c(Br)cccc34)cccc2n1 (stereo not shown) [compound 64, 3-(5-{7-bromo-2′-methyl-1H,2′H-[3,4′-biindazol]-1-yl}pyridin-2-yl)-3-azabicy-clo[3.1.0]hexane-6-car-boxylic acid]",–
200,100,100,100,100,–,–,"CCc1cccc2c(-c3cccc4nn(C)cc34)nn(-c3ccc(N4CC5C(C4)C5C(=O)O)nc3)c12 (stereo not shown) [compound 65, 3-(5-{7-ethyl-2′-methyl-1H,2′H-[3,4′-biindazol]-1-yl}pyridin-2-yl)-3-azabicy-clo[3.1.0]hexane-6-car-boxylic acid]",21
1800,600,300,700,800,–,–,"Cc1cccc2c(-c3cccc4nn(C)cc34)nn(-c3ccc(N4CC5C(C4)C5C(N)=O)nc3)c12 (stereo not shown) [compound 72, 3-(5-{2′,7-dimethyl-1H,2′H-[3,4′-biindazol]-1-yl}pyridin-2-yl)-3-azabicyclo[3.1.0]hexane-6-carboxamide]",18

# Source: US12065427B2, “Heterocyclic compounds capable of activating STING” (BOEHRINGER INGELHEIM INTERNATIONAL GMBH, priority 2021, dated 2024)
